Several values for one entry are separate records, joined by “and”; a condition that tells them apart may be missing. Equal entries are not always repeated.
Legend:
[1] = system: O-LPS (LPS from E. coli O111:B4); experiment: LPS affinity assay (BODIPY TR cadaverine displacement); format: binding; conditions: 50% of BC probe bound to LPS displaced; Mean ± SE
Source text: (§1) Lipopolysaccharides (LPS) from E. coli O111:B4 (O-LPS), EH100 (Ra mutant), and J5 (Rc mutant), porcine mucin, Mueller Hinton broth (MHB) and Thiazolyl Blue Tetrazolium […] (MTT) were purchased at Sigma-Aldrich (Saint Louis, MO, USA). Colistin sulphate and Dimethyl sulfoxide (DMSO) were from Apollo Scientific (Stockport, UK). BODIPY® TR cadaverine (BC) were from Molecular Probes (Eugene, OR, USA). Mouse TNF-α ELISA Kit (MBS175787, MyBioSource, San Diego, CA, USA) and Mouse LPS ELISA Kit (MBS7700668, MyBioSource, San Diego, CA, USA) were from bioNova científica s.l. (Madrid, Spain) Human TNF-α ELISA set was from BD Biosciences (555212, BD OptEIA^TM, San Jose, CA, USA). Aspidasept® (pep19-2.5) is an antibacterial/anti-inflammatory peptide drug ([…], with C-terminal amide).
(§2) The LPS affinity was assessed using the fluorescent probe BC by an adaptation of the displacement assay reported. Peptides and colistin were serially diluted in a 96-well fluorescence plate from 20 to 0.16 μM in Tris/HCl 50 mM PH 7.4. Next, LPS and BC diluted in the same buffer were added to have the final concentration of 50 μg/mL and 5 μM, respectively. Fluorescence measurements were performed on Tecan Microplate Reader Spark® at 580 nm of excitation wavelength and 620 nm of the emission wavelength at 5 nm for optimal gain. Each test was performed in triplicate.

[2] = system: LPSRa (LPS from E. coli EH100, Ra mutant); experiment: as above; format: binding; conditions: 50% of BC probe bound to LPS displaced; Mean ± SE
Source text: as §1, §2

[3] = system: LPSRc (LPS from E. coli J5, Rc mutant); experiment: as above; format: binding; conditions: 50% of BC probe bound to LPS displaced; Mean ± SE
Source text: as §1, §2

P. aeruginosa = format: cell-based, Pseudomonas aeruginosa; conditions: 24 h incubation, MHB, triplicate
Source text: (§3) A. baumannii strain (CECT 452, Valencia, Spain, ATCC 15308, Manassas, VA, USA) and Pseudomonas aeruginosa (P. aeruginosa) strain (CECT 4122, Valencia, Spain, ATCC 15692, Manassas, VA, USA) were from the Colección Española de Cultivos Tipo (CECT, Valencia, Spain). The Escherichia coli (E. coli) BL21 (DE3) strain was from Novagen (Darmstadt, Germany). MRC-5 cells were from the American Type Culture Collection (ATCC, Manassas, VA, USA) and HEK293T cell line was kindly provided by Dr. Raquel Pequerul (UAB, Barcelona, Spain).
(§4) The MIC is defined as the lowest concentration of one reagent to prevent visible growth of bacteria. The MIC determination was followed by the protocol described previously. Briefly, bacteria in exponential growth were used to prepare a suspension in MHB with the approximate number of 5 × 10^5 CFU/mL. Next, an aliquot of 90 μL of bacteria suspension was added into each well of the 96-well polypropylene plate. Immediately, 10 μL of peptide diluted by 0.01% acetic acid was added to the corresponding well to have a final concentration ranging from 20 to 0.16 μM. The plate was incubated for 24 h at 37 °C, 100 rpm. The presence or absence of bacterial growth was visually inspected and confirmed by reading OD600 with Tecan Microplate Reader Spark®. Each test was performed in triplicate.

LPS = LPS in serum of infected mice by ELISA; format: in vivo, Balb/c mice; conditions: second efficacy assay, colistin 15 mg/kg versus ECPep-D 20 mg/kg, p < 0.1
Description: In the second efficacy study, the blood of animals that either died for severe clinical symptoms or were euthanized at the end of the assay, were collected for testing TNF-α and LPS levels by ELISA. In order to check the levels of TNF-α and free LPS, only serum was analyzed, after discarding blood cells by centrifugation. The blood from mice was centrifuged at 3200 rpm for 30 min and the supernatants were collected carefully to ensure that there were no sediments left. Mouse ELISA kits for TNF-α and LPS were used.
According to the description of the manufacturer, LPS level determination is based on the principle of double antibody sandwich technology, where the microplates pre-coated with specific antibodies were used. Following addition of serum samples to the wells, the HRP-Conjugate reagent was added to form an immune complex. After incubation and washing, the unbound enzyme was removed. Then, chromogen substrates were added successively and optical density was recorded using microplate reader set at 450 nm. Sample readings were corrected using the baseline corresponding to serum of mice neither infected nor treated. A calibration standard curve was prepared and final calculated values were positively correlated with the concentration of LPS. Two replicates were performed according to the protocols for the representation of the standard curve and the sample testing.

A. baumannii [4] = format: cell-based, Acinetobacter baumannii; conditions: 24 h incubation, MHB, triplicate
Source text: as §3, §4

E. coli = format: cell-based, Escherichia coli; conditions: 24 h incubation, MHB, triplicate
Source text: as §3, §4

HEK293T cells = system: HEK293T cells
Description: (§5) Cytotoxicity was measured for the MRC-5 and HEK293T cell lines by MTT assay. Cells were grown in 5% CO2 at 37 °C with MRC-5 cell line maintained in MEMα and HEK293T in DMEM/F-12 media, both of which were supplemented with 10% FBS. The cells were passaged in 25 cm^2 or 75 cm^2 flasks to prepare 96-well plates with 3 × 10^4 cells/well, which were incubated overnight. Next, serial dilutions of ECPep-D and ECPep-2D-Orn were added to have a final concentration ranging from 100 to 0.78 μM (375 μg/mL to 3 μg/mL) and colistin was added at final concentrations ranging from 300 to 2.34 μM (380 μg/mL to 3 μg/mL) in corresponding wells. After incubation to the specified time, the medium of the plate was replaced by fresh medium containing 0.5 mg/mL MTT solution and the mixture was incubated for 2.5 h in 5% CO2 at 37 °C. The medium was then removed, and formazan was dissolved by adding DMSO. The optical density (OD) was recorded by using a Victor^3 plate reader (PerkinElmer, Waltham, MA, USA) set at 540 nm and 620 nm as a reference. Each test was performed in triplicate.

MRC-5 cells = experiment: Cytotoxicity assay (MTT); conditions: MTT, Mean ± SE, N.D. = no reduction in cell viability detected at the highest concentration
Description: as §5

A. baumannii [5] = experiment: Efficacy assay in murine acute systemic infection model (survival); format: in vivo, Balb/c mice; conditions: 10^8 CFU/kg A. baumannii, colistin 15 mg/kg
Description: An aliquot from an A. baumannii stock stored in 15% glycerol at −80 °C was taken to culture in 3 mL LB overnight at 250 rpm, 37 °C. Next, OD600 reading of A. baumannii overnight culture was performed to adjust to the number of bacteria required (CFU/mL) and then diluted by half with the same volume of 10% porcine mucin, to obtain a solution of selected CFU/mL in 5% mucin for mice inoculation. […] The inoculating volume was decided based on the body weight of each animal (10 mL/kg).
When the sum of the scores reached a maximum value of 7, the mice were euthanized following ethical principles. The infection was first tested at a concentration of 10^9 CFU/kg and then set at 10^7 CFU/kg and 10^8 CFU/kg. […] We also performed an extra assay where mice infected by 10^8 CFU/kg of A. baumannii were treated with colistin, used as a positive control.
To avoid bias, the reagents for these four groups were given to technicians in advance and renumbered randomly, designated as A, B, C, D, respectively. […]
The clinical symptoms were assessed through a scoring system, which contains 9 items, including changes of body weight, behavior, breathing, skin, hair, eyes and gastrointestinal status (see full list at Table S2). […] During the study, when an animal obtained a score of 3 in any of the parameters assessed with a maximum score of 3, euthanasia was carried out to apply the endpoint criteria. […]

[6] = cited from earlier work

Colistin sulphate [reference compound]
EC50 [1]: 7.87 ± 0.33 µM | EC50 O-LPS [1]: 9.97 ± 0.42 µg/mL | EC50 [2]: 13.1 ± 0.4 µM | EC50 LPSRa [2]: 16.63 ± 0.50 µg/mL | EC50 [3]: 19.2 ± 0.34 µM | EC50 LPSRc [3]: 24.31 ± 0.42 µg/mL | MIC P. aeruginosa (P. aeruginosa): 0.31 μM and 0.40 μg/mL | concentration of LPS in serum, Day 3 (LPS): slightly increased | MIC A. baumannii (A. baumannii [4]): 0.31 μM and 0.40 μg/mL | MIC E. coli (E. coli): 5 μM and 6.34 μg/mL | IC50 (HEK293T) 48h (HEK293T cells; MTT, Mean ± SE): > 380.26 µg/mL | IC50 (HEK293T cells; read-out: IC50 (HEK293T) 48h, MTT, Mean ± SE): > 300 µM | LD50 (MRC-5) 24 h (MRC-5 cells; 24 h): >300 μM and >380.26 μg/mL | LD50 (MRC-5) 48 h (MRC-5 cells; 48 h): >300 μM and >380.26 μg/mL | survival rate, first efficacy assay (A. baumannii [5]; i.p. once every 24 h for 3 days from 2 h post inoculum, peptides 10 mg/kg, 3 days): 100% | survival rate after 3 days (72 h), second efficacy assay (A. baumannii [5]; single i.p. dose 2 h post inoculum, peptides 20 mg/kg, 72 h): 100% | LD50 by intraperitoneal administration ([6]; Swiss albino mice, single injection): 20 to 30 mg/kg | deaths from neurotoxicity ([6]; mice receiving 32 mg/(kg × day), after three doses): three of twelve mice died | LD50 for the intraperitoneal route ([6]; mice, ref U.S. National Library of Medicine ChemIDplus 1264-72-8): 21.8 mg/kg

Reference: PMC8962335, “In Vivo Evaluation of ECP Peptide Analogues for the Treatment of Acinetobacter baumannii Infection” (Biomedicines, 2022)
